Experimental data: patent US11028077B2, “Crystalline pharmaceutical and methods of preparation and use thereof” (NOVARTIS PHARMACEUTICALS CORPORATION, priority 2008, dated 2021)

Test system: tester strains
Test: In vitro Ames bacterial reverse mutation assay
Assay type: cell-based
Details: presence or absence of microsomal (S9) enzymes
Excerpt: Therefore, the compound of Formula I was judged to be not mutagenic.

SMILES: CS(=O)(=O)c1cccc(C[C@H](NC(=O)c2c(Cl)cc3c(c2Cl)CCN(C(=O)c2ccc4ccoc4c2)C3)C(=O)O)c1 [compound of Formula I]
- mutagenicity (revertants per plate): not mutagenic
